According to patent US20080300298A1, “Honokiol Derivates For the Treatment of Proliferative Disorders” (priority 2005, published 2008):
Like-named read-outs stand apart in the source and are kept apart here.

Assays:
[1] = tested on: SVR (a transformed endothelial cell line); assay: SVR cellular proliferation assay; format: cell-based; settings: Mus musculus, SVR cells; for inhibition at 10 µg/mL: 10 μg/mL; for inhibition at 15 µg/mL: 15 μg/mL
Procedure: The SVR (a transformed endothelial cell line) proliferation assay can be used as a direct measure of antiangiogenic and antitumor activity. This assay serves as a high throughput screen that compares the effects of a compound on proliferation of SVR cells versus an immortalized endothelial cell line, MS1. […] SVR cells were plated in 24-well dishes. The next day, the medium was replaced with fresh medium containing the inhibitors or vehicle controls. Cells were incubated at 37° C. for 72 h (Arbiser, J. L., et al. 1999 J. Am. Acad. Dermatol. 40, 925-929; LaMontagne, K. R., et al. 2000 Am. J. Pathol. 157, 1937-1945), and cell number was determined in triplicate using a Coulter Counter (Hialeah, Fla.). Immortalized and K-Ras transformed rat epithelial cells (RIEpZip and […]) and fibroblasts (NIH3T3 pZip and NIH3T3 pZipK-Ras12V) were maintained at 37° C., 10% CO2, in Dulbecco's modified Eagle's medium supplemented with 5% fetal calf serum (RIE) or 10% calf serum (NIH3T3) (Oldham, S. M., et al. 1996 Proc. Natl. Acad. Sci. U.S.A. 93, 6924-6928; Pruitt, K., et al. 2000 J. Biol. Chem. 275, 40916-40924). Cells were plated at 10^5/well in six-well plates.

[2] = toxicity in mice (Table 5); settings: mouse, in vivo
Description: In vivo models of cancer growth include xenografts of human tumor cells injected into animals, such as mice, particularly immunocomprimised mice. Toxicity of the compounds can also be assessed in these assays through daily administration of the compounds to the animals combined with daily monitoring of the animals. The animals can also be monitored for two weeks to look for weight loss, as well as other common toxicities known to one skilled in the art, such as altered grooming, decreased movement of mice, and tremor. The compounds can also be tested for their ability to inhibit tumor growth in animals. SVR angiosarcoma tumor cells, for example, can be injected into animals, such as immunocompromised mice. Mice can be injected with approximately one million SVR cells subcutaneously, and when tumors become palpable, can be treated with a beginning dose (such as 120 mg/kg intraperitoneally) once daily. Drugs that are active at 120 mg/kg can then be retested at lower doses of 80 mg/kg, 40 mg/kg, etc. Tumor volume can be calculated using the formula (w2×L)0.52, where w (width) represents the smallest dimension of the tumor. Mice can be treated for a period of time such as approximately 30 days, or until tumor growth reaches 1 cm^3.

HIV-1 = assay: HIV assay in PBM cells (RT activity); format: cell-based; settings: Human immunodeficiency virus 1, PBMC, HIV-1 in human PBM cells; for EC50: read-out: Activity anti-VIH-1 on PBM cells EC50; for EC90: read-out: Activity anti-VIH-1 on PBM cells EC90
Procedure: The antiviral activity of the synthesized compounds and honokiol were evaluated against HIV-1 in human peripheral blood mononuclear (PBM) cells (Table 4).
Human peripheral blood mononuclear (PBM) cells (which can be obtained from Atlanta Red Cross) can be isolated by Ficoll-Hypaque discontinuous gradient centrifugation from healthy seronegative donors. Cells can be stimulated with phytohemagglutinin A (Difco, Sparks, Md.) for 2-3 days prior to use. HIV-1, such as HIV-1LAI can be obtained from the Centers for Disease Control and Prevention (Atlanta, Ga.), and can be used as the standard reference virus for the antiviral assays. The molecular infectious clones HIV-1xxBru and HIV-1M184Vpin can be obtained from Dr. John Mellors (University of Pittsburgh). Infections can be done in bulk for one hour, either with 100 TCID50/1×10^7 cells for a flask (T25) assay or with 200 TCID50/6×10^5 cells/well for a 24 well plate assay. Cells can be added to a plate or flask containing a ten-fold serial dilution of the test compound. Assay medium can be RPMI-1640 supplemented with heat inactivated 16% fetal bovine serum, 1.6 mM L-glutamine, 80 IU/ml penicillin, 80 μg/ml streptomycin, 0.0008% DEAE-Dextran, 0.045% sodium bicarbonate, and 26 IU/ml recombinant interleukin-2 (Chiron Corp, Emeryville, Calif.). AZT can be used as a positive control for the assay. Untreated and uninfected PBM cells can be grown in parallel at equivalent cell concentrations as controls. The cell cultures can be maintained in a humidified 5% CO2-air at 37° C. for 5 days and supernatants can be collected for reverse transcriptase (RT) activity.
Supernatants can be centrifuged at 12,000 rpm for 2 hours to pellet the virus. The pellet can be solubilized with vortexing in 100 μl virus solubilization buffer (VSB) containing 0.5% Triton X-100, 0.8 M NaCl, 0.5 mM phenylmethylsulfonyl fluoride, 20% glycerol, and 0.05 M Tris, pH 7.8. Ten μL of each sample can be added to 75 μL RT reaction mixture (0.06 M Tris, pH 7.8, 0.012 M MgCl2, 0.006 M dithiothreitol, 0.006 mg/ml poly (rA)n, oligo (dT)12-18, 96 μg/ml dATP, and 1 μM of 0.08 mCi/ml ^3H-thymidine triphosphate (Moravek Biochemicals, Brea, Calif.) and can be incubated at 37° C. for 2 hours. The reaction can be stopped by the addition of 100 μL 10% trichloroacetic acid containing 0.05% sodium pyrophosphate. The acid insoluble product can be harvested onto filter paper using a Packard Harvester (Meriden, Conn.), and the RT activity can be read on a Packard Direct Beta Counter (Meriden, Conn.). The RT results can be expressed in counts per minute (CPM) per milliliter. The antiviral 50% effective concentration (EC50) and 90% effective concentration (EC90) can be determined from the concentration-response curve using the median effect method (Belen'kii, S. M.; Schinazi, R. S. Multiple drug effect analysis with confidence interval. Antiviral. Res. 1994, 25, 1-11).

cytotoxicity assay (MTT) [3] = format: cell-based, human; settings: human
Procedure: (§1) The cytotoxicity of the honokiol and analogues thereof were assessed in human PBM, CEM and Vero cells (Table 4). Compounds can be evaluated for their potential toxic effects on uninfected human PBM cells, in CEM (T-lymphoblastoid cell line obtained from American Type Culture Collection, Rockville, Md.) and Vero (African green monkey kidney) cells. PBM cells can be obtained from whole blood of healthy seronegative donors (HIV-1) by single-step Ficoll-Hypaque discontinous gradient centrifugation. […] All of the cells can be plated in 96-well cell culture plates containing ten-fold serial dilutions of the test drug. […] At the end of incubation, MTT tetrazolium dye solution (Cell titer 96®, Promega, Madison, Wis.) can be added to each well and incubated overnight. The reaction can be stopped with stop solubilization solution (Promega, Madison, Wis.). […] The plates can be read at a wavelength of 570 nm using an ELISA plate reader (Bio-tek instruments, Inc., Winooski, Vt., Model #EL 312e). The 50% inhibition concentration (IC50) can be determined from the concentration-response curve using the median effect method.

cytotoxicity assay (MTT) [4] = format: cell-based; settings: for EC50 at 3 days: African green monkey; for EC50 at 4 days: human
Procedure: as §1

[5] = uninfected PBM cells, read-out: Cytotoxicity (EC50-μM) in: PBM
[6] = Vero cells, read-out: Cytotoxicity (EC50-μM) in: VERO
[7] = CEM cells, read-out: Cytotoxicity (EC50-μM) in: CEM
[8] = Vero kidney cells, Vero cells, read-out: Cytotoxicity (EC50-μM) in: VERO
[9] = CEM T-lymphoblastoid cells, CEM cells, read-out: Cytotoxicity (EC50-μM) in: CEM

Compound	inhibition at 10 µg/mL [1]	inhibition at 15 µg/mL [1]	also measured
O=C(/C=C/c1ccccc1)Oc1cc(OC(=O)/C=C/c2ccccc2)cc(OC(=O)/C=C/c2ccccc2)c1	13.4%	8.6%	–
C=CCc1cc(C(=C(Cl)Cl)c2ccc(O)c(CC=C)c2)ccc1O	53.6%	75.6%	–
C=CCc1cc(/C(CC)=C(\CC)c2ccc(O)c(CC=C)c2)ccc1O	68.4%	89.3%	Toxicity [2]: Toxic
C=CCc1ccc(O)c(-c2cc(CC=C)ccc2O)c1	–	–	EC50 (HIV-1): 69.3 µM; EC90 (HIV-1): > 100 µM; EC50 at 5 days (cytotoxicity assay (MTT) [3]; [5]): 38.6 µM; EC50 at 3 days (cytotoxicity assay (MTT) [4]; [6]): 79.9 µM; EC50 at 4 days (cytotoxicity assay (MTT) [4]; [7]): 99.6 µM
C=CCc1cc2c3ccccc3n(CC=C)c2cc1O	68.9%	76.1%	–
C=CCc1ccc(OC)c(-c2ccc(OC)c(CC=C)c2)c1 [drawing 55]	40.6%	47.2%	–
C=CCc1c(O)ccc2c3ccccc3n(CC=C)c12	69.7%	78.7%	–
O=C(CCc1ccccc1)Oc1cc(OC(=O)CCc2ccccc2)cc(OC(=O)CCc2ccccc2)c1	5%	25%	–
C=CCc1ccc(O)c(-c2ccc(O)c(CC=C)c2)c1 [drawing 48]	59.9%	85%	–
C=CCc1ccc(O)c(CC=C)c1O	37.2%	36%	–
C=CCOc1ccc(/C=C/C(=O)CC(=O)/C=C/c2ccc(O)c(OC)c2)cc1OC	75.2%	78.8%	–
C=CCc1cc(-c2ccc(O)c(CC=C)c2)ccc1O [drawing 56]	44.9%	56.2%	Toxicity [2]: Toxic
C=CCc1ccc2c(c1)-c1cc(CC=C)ccc1OC(C)(C)O2 [drawing 42]	–	–	EC50 (HIV-1): 13.6 µM; EC90 (HIV-1): 43.3 µM; EC50 at 5 days (cytotoxicity assay (MTT) [3]; [5]): 75.3 µM; EC50 at 3 days (cytotoxicity assay (MTT) [4]; [8]): > 100 µM; EC50 at 4 days (cytotoxicity assay (MTT) [4]; [9]): 11.6 µM
C=CCc1ccc(OC)c(-c2ccc(OC)c(CC=C)c2)c1 [drawing 45]	–	–	EC50 (HIV-1): 54.3 µM; EC90 (HIV-1): > 100 µM; EC50 at 5 days (cytotoxicity assay (MTT) [3]; [5]): > 100 µM; EC50 at 3 days (cytotoxicity assay (MTT) [4]; [8]): > 100 µM; EC50 at 4 days (cytotoxicity assay (MTT) [4]; [9]): 19.1 µM
C=CCc1ccc2c(c1)-c1cc(CC=C)ccc1OC(C)(C)O2 [drawing 54]	61.9%	59.7%	–
C=CCc1cc(-c2ccc(O)c(CC=C)c2)ccc1O [drawing 47]	–	–	EC50 (HIV-1): 19.4 µM; EC90 (HIV-1): 66.4 µM; EC50 at 5 days (cytotoxicity assay (MTT) [3]; [5]): > 100 µM; EC50 at 3 days (cytotoxicity assay (MTT) [4]; [6]): 33.2 µM; EC50 at 4 days (cytotoxicity assay (MTT) [4]; [7]): 23 µM

Compound	inhibition at 10 µg/mL [1]	inhibition at 15 µg/mL [1]	also measured
C=CCC1=C(CC=C)C(=O)c2ccccc2C1=O	87.5%	91.5%	Toxicity [2]: Toxic
C=CCc1cc(-c2cccc(CC=C)c2O)ccc1O	74.2%	81.6%	–
C=CCc1cccc(-c2cccc(CC=C)c2O)c1O [drawing 50]	40.8%	57.2%	–
CCCc1ccc(O)c(-c2ccc(O)c(CCC)c2)c1 [drawing 49]	79.2%	89.6%	–
C=CCc1cc(C(c2ccc(O)c(CC=C)c2)c2ccccn2)ccc1O	25.2%	46.1%	–
C=CCOc1ccc(/C=C/C(=O)CC(=O)/C=C/c2ccc(OCC=C)c(OC)c2)cc1OC	70%	67.9%	–
CCCc1ccc(O)c(-c2ccc(O)c(CCC)c2)c1 [drawing 44]	–	–	EC50 (HIV-1): 16.9 µM; EC90 (HIV-1): 69.4 µM; EC50 at 5 days (cytotoxicity assay (MTT) [3]; [5]): 45.9 µM; EC50 at 3 days (cytotoxicity assay (MTT) [4]; [8]): 19.8 µM; EC50 at 4 days (cytotoxicity assay (MTT) [4]; [9]): 10.4 µM
C=CCc1cc(C(C)(C)c2ccc(O)c(CC=C)c2)ccc1O	32.9%	57.1%	–
C=CCOc1cc2c(cc1OCC=C)C1c3ccc(OCC=C)c(OCC=C)c3OCC1(O)C2 (stereo not drawn)	13.8%	41.8%	–
C=CCc1cccc(-c2ccccc2O)c1O	47.1%	59.3%	–
C=CCc1cccc(-c2cccc(CC=C)c2O)c1O [drawing 46]	–	–	EC50 (HIV-1): 34.8 µM; EC90 (HIV-1): 63 µM; EC50 at 5 days (cytotoxicity assay (MTT) [3]; [5]): > 100 µM; EC50 at 3 days (cytotoxicity assay (MTT) [4]; [8]): > 100 µM; EC50 at 4 days (cytotoxicity assay (MTT) [4]; [9]): > 100 µM
C=CCc1ccc(OS(=O)(=O)c2ccccc2)c(-c2ccc(OS(=O)(=O)c3ccccc3)c(CC=C)c2)c1	35.3%	37.9%	–
C=CCc1cc(-c2ncc(O)cn2)ccc1O	4.4%	10%	–
C=CCc1ccc(O)c(-c2ccc(O)c(CC=C)c2)c1 [drawing 43]	–	–	EC50 (HIV-1): 3.3 µM; EC90 (HIV-1): 22.7 µM; EC50 at 5 days (cytotoxicity assay (MTT) [3]): 16.1 µM; EC50 at 3 days (cytotoxicity assay (MTT) [4]): 22.5 µM; EC50 at 4 days (cytotoxicity assay (MTT) [4]): 10.9 µM
C=CCc1cc(Cc2ccc(O)c(CC=C)c2)ccc1O	75.5%	73.7%	Toxicity [2]: Toxic
